As a reminder, the pKa is the negative logarithm of the acid dissociation constant.

These results are taken from paper PMC7806715, “Discovery of small molecules targeting the tandem tudor domain of the epigenetic factor UHRF1 using fragment-based ligand discovery” (Scientific Reports, 2021).

For one series, the target named is T1, C-FLAG-UHRF1-FL (Homo sapiens, UniProt Q96T88).
T1 construct: His6-UHRF1-full length (His6-UHRF1-FL); His (N); made in house; host or cells: Rosetta (DE3) E. coli, pMCSG7
T1 sequence (Q96T88 1-793): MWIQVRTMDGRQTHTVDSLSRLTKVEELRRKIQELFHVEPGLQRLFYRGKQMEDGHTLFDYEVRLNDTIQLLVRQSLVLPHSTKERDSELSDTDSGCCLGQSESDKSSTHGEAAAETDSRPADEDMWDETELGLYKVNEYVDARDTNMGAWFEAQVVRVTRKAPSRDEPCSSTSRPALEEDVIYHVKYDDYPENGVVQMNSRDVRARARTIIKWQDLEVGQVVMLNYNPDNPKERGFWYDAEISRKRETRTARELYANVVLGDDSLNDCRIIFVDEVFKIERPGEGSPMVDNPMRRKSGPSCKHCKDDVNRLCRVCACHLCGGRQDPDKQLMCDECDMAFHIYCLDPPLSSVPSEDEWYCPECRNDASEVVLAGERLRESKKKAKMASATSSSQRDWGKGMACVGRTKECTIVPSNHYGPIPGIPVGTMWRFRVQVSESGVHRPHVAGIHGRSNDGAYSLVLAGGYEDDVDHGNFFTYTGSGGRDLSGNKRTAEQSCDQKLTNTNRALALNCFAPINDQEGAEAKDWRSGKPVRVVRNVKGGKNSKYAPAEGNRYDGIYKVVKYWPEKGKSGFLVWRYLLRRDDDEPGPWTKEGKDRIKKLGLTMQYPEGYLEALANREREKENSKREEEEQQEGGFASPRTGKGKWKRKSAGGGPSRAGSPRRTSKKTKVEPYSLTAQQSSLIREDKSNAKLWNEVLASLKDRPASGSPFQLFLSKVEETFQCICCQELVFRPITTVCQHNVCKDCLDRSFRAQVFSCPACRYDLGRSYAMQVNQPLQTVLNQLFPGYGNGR
Briefly: Intrinsic tryptophan fluorescence of C-FLAG-UHRF1-FL. It is filed as binding. The following applies: 5 µM protein. The procedure: The untagged TTD was diluted to 30 µM by buffer (50 mM sodium phosphate, pH 7.5, 150 mM NaCl) with or without 60 µM of H3K9me3 peptide (1–20) (Anaspec). 10 µL of diluted TTD was added into 384-well flat bottom black plate (Greiner, Cat# 781086). […] The final concentration of TTD was 15 µM and the H3K9me3 peptide (if included) was 30 µM. The experiment was performed at room temperature. […] After compound addition, the intrinsic tryptophan fluorescence was analyzed by the Tecan Infinite M1000 plate reader (excitation 280 nm, emission 334 nm). […] Tryptophan fluorescence monitors 2 , 4 - lutidine binding to His 6 - TTD, His 6 - TTD - PHD, and C - FLAG - UHRF 1 - FL . 2 , 4 - Lutidine dose - dependently quenched the tryptophan fluorescence of TTD (purple circle), while only started to show quenching effect against His 6 - TTD - PHD at mM concentration (blue diamond) . 2 , 4 - Lutidine had no effect on the fluorescence of C - FLAG - UHRF 1 - FL and the control USP 7 - UBL 1 / 2 protein . n= 3 for each data point . (Note : the standard deviation error bars are included, but the error values are often extremely small in this assay) . […]

Series [1] concerns the target His-USP7-UBL1/2 (control protein) (Homo sapiens, UniProt Q93009). Nature of the series: Intrinsic tryptophan fluorescence of control protein. It is filed as binding. The conditions noted are these: 3.2 µM protein.
For series [2] the following is noted: no reference given; cited from earlier work.
Series [3] deals with T2, His6-TTD (UHRF1 tandem Tudor domain) vs. H3K9me3 peptide (Homo sapiens, UniProt Q96T88).
T2 construct: Using the isolated His6-TTD (aa 123–283) we performed a thermal shift assay; made in house; host or cells: Rosetta (DE3) E. coli, pMCSG7
T2 sequence (Q96T88 123-283): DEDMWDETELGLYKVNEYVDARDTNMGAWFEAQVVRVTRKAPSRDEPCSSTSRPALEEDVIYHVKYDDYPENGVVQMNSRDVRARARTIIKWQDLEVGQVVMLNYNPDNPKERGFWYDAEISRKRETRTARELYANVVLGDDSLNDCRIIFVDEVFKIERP
Nature of the series: TR-FRET assay: His6-TTD interaction with H3K9me3 peptide. The following applies: protein treated with PKA and ATP 1 h at 30 °C. It is filed as biochemical. The procedure: Finally, the fragment library was screened using a TR-FRET assay to find inhibitors that block the interaction of His6-TTD with H3K9me3 peptide. In this assay, an anti-His6-antibody labeled with Tb cryptate binds to His6-TTD while a streptavidin-d2 acceptor binds to a biotinylated histone H3K9me3 peptide. The binding between His6-TTD and H3K9me3 peptide was measured by the ratio of 665 nm fluorescence (from the d2 acceptor) to 620 nm fluorescence (from the Tb cryptate donor) (Fig. 1D).
The fragment screen was carried out on low volume 384-well white plates (Corning 4512) and the assay was performed at room temperature. […] After 1 h of incubation, the fluorescent signals at 665 nm and 620 nm of each plate were measured by the Tecan Infinite M1000 plate reader (excitation 340 nm, 60 µs lag time, and 500 µs integration time) and the TR-FRET signal was calculated by the ratio of 665 nm/620 nm fluorescent signal. For the fragment screen, on seven of the library plates there were 32-wells of DMSO control, while there were 8-wells of DMSO control in the last plate. […] The only difference was that the final concentration of His6-TTD-PHD was 200 nM, biotin-H3K9me3 peptide was 200 nM for the His6-TTD-PHD TR-FRET assay, while the final concentration of His6-UHRF1-FL was 200 nM and biotin-H3K9me3 peptide was 100 nM for the His6-UHRF1-FL TR-FRET assay. The buffer pH was 7.5 for the His6-TTD-PHD and His6-UHRF1-FL assays.
In general terms: In TR-FRET formats the signal depends on donor and acceptor labels being close together.

His-USP7-UBL1/2 (control protein), sequence (Q93009 560-776 limits assumed): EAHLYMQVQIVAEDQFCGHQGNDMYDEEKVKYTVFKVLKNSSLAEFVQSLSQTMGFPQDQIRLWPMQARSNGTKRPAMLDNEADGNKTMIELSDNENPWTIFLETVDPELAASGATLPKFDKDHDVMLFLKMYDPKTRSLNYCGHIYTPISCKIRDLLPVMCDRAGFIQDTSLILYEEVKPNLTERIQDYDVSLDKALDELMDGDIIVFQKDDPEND

For `Cc1ccnc(C)c1` [2,4-lutidine], at C-FLAG-UHRF1-FL, the “quenching of C-FLAG-UHRF1 tryptophan fluorescence (in words)” value is listed as “did not quench”. Further, the “effect on tryptophan fluorescence of control protein (in words)” value in series [1] is recorded as “did not inhibit”. Also, in series [2], the pKa is 6.99. For the same molecule, the “effect of PKA treatment of His6-TTD on inhibition of H3K9me3 peptide binding (in words)” value in series [3] is listed as “no effect”.
